In article doi:10.1101/2024.08.19.608619, “Discovery of potent SARS-CoV-2 nsp3 macrodomain inhibitors uncovers lack of translation to cellular antiviral response” (bioRxiv, 2024):
Read-outs that look alike come from different tables or passages of the source.

What was measured:
Experiment in all cases: biochemical
Set-up in all cases: In vitro kinase panel profiling, per cent remaining kinase activity at 10 uM
PI3 Kinase (p120γ)(h) = biological target: T1, PI3 Kinase (p120γ)(h) (Homo sapiens, UniProt P48736); details: atp_concentration=100, read-out: % of control remaining
T1 construct: gene PIK3CG
Excerpt: (§1) We derisk potential for off-target activity by profiling the compound in a CEREP panel, a standard secondary pharmacology assessment, as well as a kinase panel to derisk a potential hinge-binding motif in our leads, and a PARP panel to derisk activity against human […]. Reassuringly, the compounds are selective, with the only off-targets being moderate human CHRM2 and KOR receptors activity associated with ASAP-0011198.

MST1(h) = biological target: T2, MST1(h) (Homo sapiens, UniProt Q13043); details: atp_concentration=90, read-out: % of control remaining
T2 construct: gene STK4
T2 sequence (Q13043 1-487): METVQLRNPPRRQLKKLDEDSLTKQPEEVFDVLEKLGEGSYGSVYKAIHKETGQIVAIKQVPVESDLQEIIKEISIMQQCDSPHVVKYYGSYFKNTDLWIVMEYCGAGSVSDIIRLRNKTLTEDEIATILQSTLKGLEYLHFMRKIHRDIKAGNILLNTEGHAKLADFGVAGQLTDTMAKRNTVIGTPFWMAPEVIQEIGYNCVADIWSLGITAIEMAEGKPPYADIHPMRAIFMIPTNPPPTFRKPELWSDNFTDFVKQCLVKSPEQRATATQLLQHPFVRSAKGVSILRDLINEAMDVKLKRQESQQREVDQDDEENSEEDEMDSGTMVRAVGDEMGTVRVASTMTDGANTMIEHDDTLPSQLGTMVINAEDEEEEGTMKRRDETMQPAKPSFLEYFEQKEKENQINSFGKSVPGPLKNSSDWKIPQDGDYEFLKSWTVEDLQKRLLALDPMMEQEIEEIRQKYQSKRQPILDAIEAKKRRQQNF
Excerpt: as §1

GSK3β(h) = biological target: T3, GSK3β(h) (Homo sapiens, UniProt P49841); details: atp_concentration=15, read-out: % of control remaining
T3 construct: gene GSK3B
Excerpt: as §1

Fyn(h) = Fyn(h) (Homo sapiens, UniProt P06241); details: atp_concentration=70, read-out: % of control remaining
Excerpt: as §1

MLK1(h) = biological target: T4, MLK1(h) (Homo sapiens, UniProt P80192); details: atp_concentration=45, read-out: % of control remaining
T4 construct: gene MAP3K9
Excerpt: as §1

PKBα(h) = biological target: T5, PKBα(h) (Homo sapiens, UniProt P31749); details: atp_concentration=155, read-out: % of control remaining
T5 construct: gene AKT1
Excerpt: as §1

CDK1/cyclinB(h) = CDK1/cyclinB(h) (Homo sapiens, UniProt P06493); details: atp_concentration=45, read-out: % of control remaining
Excerpt: as §1

IGF-1R(h) = biological target: T6, IGF-1R(h) (Homo sapiens, UniProt P08069); details: atp_concentration=200, read-out: % of control remaining
T6 construct: gene IGF1R
Excerpt: as §1

[1] = biological target: T7, PI3 Kinase (p110δ/p85α)(h) (Homo sapiens, UniProt O00329); details: atp_concentration=200, read-out: % of control remaining
T7 construct: gene PIK3CD
Excerpt: as §1

CaMKI(h) = biological target: T8, CaMKI(h) (Homo sapiens, UniProt Q14012); details: atp_concentration=200, read-out: % of control remaining
T8 construct: gene CAMK1
Excerpt: as §1

CDK2/cyclinA(h) = CDK2/cyclinA(h) (Homo sapiens, UniProt P24941); details: atp_concentration=45, read-out: % of control remaining
Excerpt: as §1

SAPK2a(h) = biological target: T9, SAPK2a(h) (Homo sapiens, UniProt Q16539); details: atp_concentration=90, read-out: % of control remaining
T9 construct: gene MAPK14
Excerpt: as §1

p70S6K(h) = biological target: T10, p70S6K(h) (Homo sapiens, UniProt P23443); details: atp_concentration=15, read-out: % of control remaining
T10 construct: gene RPS6KB1
Excerpt: as §1

KDR(h) = KDR(h) (Homo sapiens, UniProt P35968); details: atp_concentration=90, read-out: % of control remaining
Excerpt: as §1

[2] = biological target: T11, PI3 Kinase (p110α/p85α)(h) (Homo sapiens, UniProt P42336); details: atp_concentration=200, read-out: % of control remaining
T11 construct: gene PIK3CA
Excerpt: as §1

mTOR(h) = mTOR(h) (Homo sapiens, UniProt P42345); details: atp_concentration=70, read-out: % of control remaining
Excerpt: as §1

EGFR(h) = EGFR(h) (Homo sapiens, UniProt P00533); details: atp_concentration=10, read-out: % of control remaining
Excerpt: as §1

[3] = biological target: T12, PI3 Kinase (p110β/p85α)(h) (Homo sapiens, UniProt P42338); details: atp_concentration=200, read-out: % of control remaining
T12 construct: gene PIK3CB
Excerpt: as §1

T12 sequence (P42338 whole entry): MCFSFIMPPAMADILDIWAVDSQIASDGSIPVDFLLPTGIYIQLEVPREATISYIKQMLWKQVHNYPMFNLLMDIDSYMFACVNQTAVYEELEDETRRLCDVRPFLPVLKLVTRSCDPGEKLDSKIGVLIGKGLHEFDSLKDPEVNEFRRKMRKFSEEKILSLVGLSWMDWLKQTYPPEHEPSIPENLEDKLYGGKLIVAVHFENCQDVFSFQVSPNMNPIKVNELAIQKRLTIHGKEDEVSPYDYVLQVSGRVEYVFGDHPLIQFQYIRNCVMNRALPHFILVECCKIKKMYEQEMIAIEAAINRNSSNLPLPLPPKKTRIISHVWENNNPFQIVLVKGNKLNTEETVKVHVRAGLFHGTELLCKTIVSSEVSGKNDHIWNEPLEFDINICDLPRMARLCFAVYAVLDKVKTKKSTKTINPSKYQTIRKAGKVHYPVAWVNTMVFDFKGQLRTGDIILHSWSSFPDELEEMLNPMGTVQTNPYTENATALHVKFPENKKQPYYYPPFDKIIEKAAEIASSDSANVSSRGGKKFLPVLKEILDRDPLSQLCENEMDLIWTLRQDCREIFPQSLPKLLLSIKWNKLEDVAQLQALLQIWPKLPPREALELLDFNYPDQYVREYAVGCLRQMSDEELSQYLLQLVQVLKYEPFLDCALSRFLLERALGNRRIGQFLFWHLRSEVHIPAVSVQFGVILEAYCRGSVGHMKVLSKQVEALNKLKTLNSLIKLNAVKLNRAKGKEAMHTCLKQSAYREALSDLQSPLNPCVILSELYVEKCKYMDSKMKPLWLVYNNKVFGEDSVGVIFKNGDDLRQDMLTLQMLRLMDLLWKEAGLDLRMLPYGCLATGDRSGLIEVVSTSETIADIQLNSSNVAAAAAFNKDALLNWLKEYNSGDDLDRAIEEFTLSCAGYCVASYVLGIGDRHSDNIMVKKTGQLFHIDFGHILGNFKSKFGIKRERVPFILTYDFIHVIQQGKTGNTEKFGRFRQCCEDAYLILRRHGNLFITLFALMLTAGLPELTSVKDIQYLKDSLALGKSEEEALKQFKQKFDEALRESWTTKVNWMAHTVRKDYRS
T12 sequence (P27986 whole entry partner): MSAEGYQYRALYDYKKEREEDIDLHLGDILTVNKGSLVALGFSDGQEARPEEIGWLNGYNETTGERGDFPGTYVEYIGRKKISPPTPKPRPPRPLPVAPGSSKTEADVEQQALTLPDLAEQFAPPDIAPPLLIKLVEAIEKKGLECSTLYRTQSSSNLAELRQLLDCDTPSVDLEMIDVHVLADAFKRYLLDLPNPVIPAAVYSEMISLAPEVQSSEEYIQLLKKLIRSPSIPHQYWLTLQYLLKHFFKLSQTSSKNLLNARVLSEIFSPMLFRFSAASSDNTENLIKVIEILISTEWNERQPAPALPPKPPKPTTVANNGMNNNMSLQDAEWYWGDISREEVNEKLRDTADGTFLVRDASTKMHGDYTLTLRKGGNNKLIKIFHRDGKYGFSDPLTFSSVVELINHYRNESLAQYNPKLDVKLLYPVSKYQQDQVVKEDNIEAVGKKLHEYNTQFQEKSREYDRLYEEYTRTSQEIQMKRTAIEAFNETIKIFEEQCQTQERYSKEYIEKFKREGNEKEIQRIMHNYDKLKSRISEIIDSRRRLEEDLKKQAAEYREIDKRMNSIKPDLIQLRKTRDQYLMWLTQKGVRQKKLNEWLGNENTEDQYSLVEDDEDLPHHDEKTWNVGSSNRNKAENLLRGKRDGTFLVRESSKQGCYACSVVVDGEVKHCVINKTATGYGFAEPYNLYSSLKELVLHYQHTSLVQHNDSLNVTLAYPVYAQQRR
T8 sequence (Q14012 whole entry): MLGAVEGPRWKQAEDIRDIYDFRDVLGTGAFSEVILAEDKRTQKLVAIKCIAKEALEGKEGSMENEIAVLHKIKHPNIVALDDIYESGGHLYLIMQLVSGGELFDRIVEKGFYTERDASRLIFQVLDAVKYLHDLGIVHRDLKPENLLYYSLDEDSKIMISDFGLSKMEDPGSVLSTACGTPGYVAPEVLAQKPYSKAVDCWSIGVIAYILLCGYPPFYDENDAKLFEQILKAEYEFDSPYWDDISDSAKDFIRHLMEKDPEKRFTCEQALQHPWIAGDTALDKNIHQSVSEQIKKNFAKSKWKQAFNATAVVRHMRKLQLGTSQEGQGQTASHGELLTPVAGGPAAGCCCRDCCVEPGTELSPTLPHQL
T6 sequence (P08069 whole entry): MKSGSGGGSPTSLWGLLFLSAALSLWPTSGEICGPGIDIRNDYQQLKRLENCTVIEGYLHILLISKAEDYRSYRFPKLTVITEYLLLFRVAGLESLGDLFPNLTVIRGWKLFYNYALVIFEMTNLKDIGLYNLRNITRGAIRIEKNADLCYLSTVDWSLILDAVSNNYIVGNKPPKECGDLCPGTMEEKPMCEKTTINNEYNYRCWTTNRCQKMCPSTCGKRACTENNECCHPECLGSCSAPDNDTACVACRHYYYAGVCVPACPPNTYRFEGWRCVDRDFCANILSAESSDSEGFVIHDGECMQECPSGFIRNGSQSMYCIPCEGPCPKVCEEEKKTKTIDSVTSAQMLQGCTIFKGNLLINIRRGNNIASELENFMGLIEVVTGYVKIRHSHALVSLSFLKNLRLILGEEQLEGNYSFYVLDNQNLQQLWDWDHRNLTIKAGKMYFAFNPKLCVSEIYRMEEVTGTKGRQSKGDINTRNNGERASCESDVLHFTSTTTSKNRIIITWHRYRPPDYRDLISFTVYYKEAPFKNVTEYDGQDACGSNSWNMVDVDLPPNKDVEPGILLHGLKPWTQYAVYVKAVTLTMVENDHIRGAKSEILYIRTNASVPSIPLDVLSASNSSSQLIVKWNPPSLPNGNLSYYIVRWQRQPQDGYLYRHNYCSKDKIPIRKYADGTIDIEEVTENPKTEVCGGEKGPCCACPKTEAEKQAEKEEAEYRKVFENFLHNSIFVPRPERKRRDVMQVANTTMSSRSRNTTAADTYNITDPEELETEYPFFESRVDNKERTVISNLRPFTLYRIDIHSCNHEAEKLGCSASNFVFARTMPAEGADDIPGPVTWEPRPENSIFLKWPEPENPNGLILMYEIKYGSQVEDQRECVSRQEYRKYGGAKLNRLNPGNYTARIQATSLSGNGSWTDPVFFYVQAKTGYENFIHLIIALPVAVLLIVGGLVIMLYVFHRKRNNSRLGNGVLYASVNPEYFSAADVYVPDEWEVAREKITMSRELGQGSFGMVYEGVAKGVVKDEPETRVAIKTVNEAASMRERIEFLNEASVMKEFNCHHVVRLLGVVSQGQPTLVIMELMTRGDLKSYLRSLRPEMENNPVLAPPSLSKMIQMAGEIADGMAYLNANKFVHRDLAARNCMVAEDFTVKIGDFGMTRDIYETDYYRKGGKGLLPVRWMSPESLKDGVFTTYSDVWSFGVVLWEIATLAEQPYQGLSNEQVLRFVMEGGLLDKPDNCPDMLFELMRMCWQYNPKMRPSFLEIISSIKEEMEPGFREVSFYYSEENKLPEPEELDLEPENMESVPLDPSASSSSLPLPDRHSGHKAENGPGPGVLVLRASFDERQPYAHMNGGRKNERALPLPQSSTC
T9 sequence (Q16539 whole entry): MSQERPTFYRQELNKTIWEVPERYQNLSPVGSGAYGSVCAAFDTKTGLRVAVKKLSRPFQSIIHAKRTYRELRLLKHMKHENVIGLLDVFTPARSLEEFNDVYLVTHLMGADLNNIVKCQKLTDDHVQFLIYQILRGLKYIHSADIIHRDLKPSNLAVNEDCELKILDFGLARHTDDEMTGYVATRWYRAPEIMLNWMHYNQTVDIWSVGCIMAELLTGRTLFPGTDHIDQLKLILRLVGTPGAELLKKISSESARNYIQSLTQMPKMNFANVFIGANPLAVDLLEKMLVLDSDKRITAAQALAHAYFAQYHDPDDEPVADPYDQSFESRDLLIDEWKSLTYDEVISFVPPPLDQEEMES
EGFR(h), sequence (P00533 whole entry): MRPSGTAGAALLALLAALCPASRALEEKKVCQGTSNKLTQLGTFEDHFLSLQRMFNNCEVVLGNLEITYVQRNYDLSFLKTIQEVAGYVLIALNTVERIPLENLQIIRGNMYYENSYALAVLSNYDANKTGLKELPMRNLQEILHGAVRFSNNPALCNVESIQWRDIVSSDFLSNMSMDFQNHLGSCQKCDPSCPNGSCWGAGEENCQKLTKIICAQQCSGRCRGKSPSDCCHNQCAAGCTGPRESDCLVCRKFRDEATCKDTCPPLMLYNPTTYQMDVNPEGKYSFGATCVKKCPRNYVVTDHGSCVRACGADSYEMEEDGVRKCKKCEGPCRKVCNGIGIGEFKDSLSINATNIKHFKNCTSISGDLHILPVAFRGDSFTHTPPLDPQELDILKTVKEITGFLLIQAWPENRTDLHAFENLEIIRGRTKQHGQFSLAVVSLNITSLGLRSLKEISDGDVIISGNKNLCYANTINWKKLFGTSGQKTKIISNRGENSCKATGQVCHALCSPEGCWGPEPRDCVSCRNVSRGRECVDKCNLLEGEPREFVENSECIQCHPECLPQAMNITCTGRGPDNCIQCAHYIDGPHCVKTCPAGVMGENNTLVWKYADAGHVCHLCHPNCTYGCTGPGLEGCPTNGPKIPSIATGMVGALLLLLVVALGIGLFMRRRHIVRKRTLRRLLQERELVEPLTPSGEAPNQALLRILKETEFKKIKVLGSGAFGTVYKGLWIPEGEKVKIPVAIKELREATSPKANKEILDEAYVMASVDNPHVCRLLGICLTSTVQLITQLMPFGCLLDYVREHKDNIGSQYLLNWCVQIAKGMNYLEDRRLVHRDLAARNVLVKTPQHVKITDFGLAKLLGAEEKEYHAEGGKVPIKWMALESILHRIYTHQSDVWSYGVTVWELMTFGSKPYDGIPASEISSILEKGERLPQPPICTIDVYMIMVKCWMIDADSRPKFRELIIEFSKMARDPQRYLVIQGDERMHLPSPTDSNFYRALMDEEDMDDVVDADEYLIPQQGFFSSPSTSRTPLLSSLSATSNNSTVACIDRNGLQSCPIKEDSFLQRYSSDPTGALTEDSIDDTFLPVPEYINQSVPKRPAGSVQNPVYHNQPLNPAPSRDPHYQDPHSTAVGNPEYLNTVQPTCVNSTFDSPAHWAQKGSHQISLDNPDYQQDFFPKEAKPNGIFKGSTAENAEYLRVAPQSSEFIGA

Compound: CC(C)C(Nc1ncnc2[nH]c(C(=O)NC3CCN(C)C3)cc12)c1ccc2c(c1)S(=O)(=O)CCC2 (stereo not drawn) [ASAP-0011198]
- remaining activity at 10 µM (PI3 Kinase (p120γ)(h); batch_name=ASAP-0011198-002): 97%
- remaining activity at 10 µM (MST1(h); batch_name=ASAP-0011198-002): 122%
- remaining activity at 10 µM (GSK3β(h); batch_name=ASAP-0011198-002): 93%
- remaining activity at 10 µM (Fyn(h); batch_name=ASAP-0011198-002): 107%
- remaining activity at 10 µM (MLK1(h); batch_name=ASAP-0011198-002): 96%
- remaining activity at 10 µM (PKBα(h); batch_name=ASAP-0011198-002): 88%
- remaining activity at 10 µM (CDK1/cyclinB(h); batch_name=ASAP-0011198-002): 103%
- remaining activity at 10 µM (IGF-1R(h); batch_name=ASAP-0011198-002): 104%
- remaining activity at 10 µM ([1]; batch_name=ASAP-0011198-002): 99%
- remaining activity at 10 µM (CaMKI(h); batch_name=ASAP-0011198-002): 100%
- remaining activity at 10 µM (CDK2/cyclinA(h); batch_name=ASAP-0011198-002): 117%
- remaining activity at 10 µM (SAPK2a(h); batch_name=ASAP-0011198-002): 97%
- remaining activity at 10 µM (p70S6K(h); batch_name=ASAP-0011198-002): 104%
- remaining activity at 10 µM (KDR(h); batch_name=ASAP-0011198-002): 96%
- remaining activity at 10 µM ([2]; batch_name=ASAP-0011198-002): 104%
- remaining activity at 10 µM (mTOR(h); batch_name=ASAP-0011198-002): 103%
- remaining activity at 10 µM (EGFR(h); batch_name=ASAP-0011198-002): 102%
- remaining activity at 10 µM ([3]; batch_name=ASAP-0011198-002): 99%

Compound: Cn1ncc(-c2cc3c(N[C@@H](c4ccc5c(n4)OCCO5)C(C)(C)C)ncnc3[nH]2)c1C#N [ASAP-0011221]
- remaining activity at 10 µM (PI3 Kinase (p120γ)(h); batch_name=ASAP-0011221-002): 88%
- remaining activity at 10 µM (MST1(h); batch_name=ASAP-0011221-002): 115%
- remaining activity at 10 µM (GSK3β(h); batch_name=ASAP-0011221-002): 98%
- remaining activity at 10 µM (Fyn(h); batch_name=ASAP-0011221-002): 82%
- remaining activity at 10 µM (MLK1(h); batch_name=ASAP-0011221-002): 94%
- remaining activity at 10 µM (PKBα(h); batch_name=ASAP-0011221-002): 103%
- remaining activity at 10 µM (CDK1/cyclinB(h); batch_name=ASAP-0011221-002): 97%
- remaining activity at 10 µM (IGF-1R(h); batch_name=ASAP-0011221-002): 77%
- remaining activity at 10 µM ([1]; batch_name=ASAP-0011221-002): 73%
- remaining activity at 10 µM (CaMKI(h); batch_name=ASAP-0011221-002): 87%
- remaining activity at 10 µM (CDK2/cyclinA(h); batch_name=ASAP-0011221-002): 114%
- remaining activity at 10 µM (SAPK2a(h); batch_name=ASAP-0011221-002): 106%
- remaining activity at 10 µM (p70S6K(h); batch_name=ASAP-0011221-002): 108%
- remaining activity at 10 µM (KDR(h); batch_name=ASAP-0011221-002): 83%
- remaining activity at 10 µM ([2]; batch_name=ASAP-0011221-002): 75%
- remaining activity at 10 µM (mTOR(h); batch_name=ASAP-0011221-002): 105%
- remaining activity at 10 µM (EGFR(h); batch_name=ASAP-0011221-002): 99%
- remaining activity at 10 µM ([3]; batch_name=ASAP-0011221-002): 91%

Compound: Cc1nn(C)cc1-c1cc2c(NC(c3ccc4c(c3)S(=O)(=O)CCC4)C(C)C)ncnc2[nH]1 (stereo not drawn) [ASAP-0011446]
- remaining activity at 10 µM (PI3 Kinase (p120γ)(h); batch_name=ASAP-0011446-002): 96%
- remaining activity at 10 µM (MST1(h); batch_name=ASAP-0011446-002): 115%
- remaining activity at 10 µM (GSK3β(h); batch_name=ASAP-0011446-002): 96%
- remaining activity at 10 µM (Fyn(h); batch_name=ASAP-0011446-002): 32%
- remaining activity at 10 µM (MLK1(h); batch_name=ASAP-0011446-002): 79%
- remaining activity at 10 µM (PKBα(h); batch_name=ASAP-0011446-002): 91%
- remaining activity at 10 µM (CDK1/cyclinB(h); batch_name=ASAP-0011446-002): 91%
- remaining activity at 10 µM (IGF-1R(h); batch_name=ASAP-0011446-002): 97%
- remaining activity at 10 µM ([1]; batch_name=ASAP-0011446-002): 101%
- remaining activity at 10 µM (CaMKI(h); batch_name=ASAP-0011446-002): 101%
- remaining activity at 10 µM (CDK2/cyclinA(h); batch_name=ASAP-0011446-002): 107%
- remaining activity at 10 µM (SAPK2a(h); batch_name=ASAP-0011446-002): 98%
- remaining activity at 10 µM (p70S6K(h); batch_name=ASAP-0011446-002): 108%
- remaining activity at 10 µM (KDR(h); batch_name=ASAP-0011446-002): 88%
- remaining activity at 10 µM ([2]; batch_name=ASAP-0011446-002): 102%
- remaining activity at 10 µM (mTOR(h); batch_name=ASAP-0011446-002): 96%
- remaining activity at 10 µM (EGFR(h); batch_name=ASAP-0011446-002): 87%
- remaining activity at 10 µM ([3]; batch_name=ASAP-0011446-002): 105%
